In the supplement of paper PMC11208160:

Test: recombinant UMI read abundance after kanamycin selection (control-corrected) (log10(CPM+1)); higher = more efficient recombination; extreme values may be limits of the assay; sequences stand for … in AGTGCAGAGAAAATCGGCCAGTTTTCTCTGCCTGCAGTCCGCATGCCGTGGGACCCCTTGGGTTCTAACCTGTTGCCTAGATTTATGCAGCGGACTGCCTTTCTCCCAAAGTGATAAACCGG…AGGTTGGTTTCACT; site = the 11-nt donor
Summary of the method: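 Each donor and donor-binding-loop pair was tracked by a 12-nt UMI on a plasmid carrying a promoterless kanamycin gene. With a second plasmid supplying a fixed target and T7-inducible IS621 bridge recombinase, the pool was plated in Escherichia coli on IPTG (0.07 mM) plus kanamycin or unselected. Sequencing of recombinant UMIs across the donor–target junction gave counts expressed as log10(CPM+1) after replicate averaging and control-derived scaling.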
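Note: IS621 bridge recombinase in Escherichia coli cells against a fixed T5 target plasmid.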

Sequence	recombinant UMI read abundance (log10)
GACCTTGCATGGACCGGTTTTCCCGGTAATCCGTATTTGCA (site GACCTTGCTTG)	0
GACGAACCATGGACCGGTTTTCCCGGTAATCCGTATTTGAG (site GACGAACCTCT)	0
GACGAACCATGGACCGGTTTTCCCGGTAATCCGTATTTGGT (site GACAAACCTAC)	0
GACGAACCATGGACCGGTTTTCCCGGTAATCCGTATTTGGT (site GACCAACCTAC)	0.0777
GACGAACCATGGACCGGTTTTCCCGGTAATCCGTATTTGGT (site GACGAACCTAC)	0
GACGAACCATGGACCGGTTTTCCCGGTAATCCGTATTTGGT (site GACTAACCTAC)	0.0149
GACGCAACATGGACCGGTTTTCCCGGTAATCCGTATTTGTA (site GACGCAACTTA)	1.34
GACGCCGCATGGACCGGTTTTCCCGGTAATCCGTATTTGGC (site GACGCCGCTGC)	2.91
GACGTCTCATGGACCGGTTTTCCCGGTAATCCGTATTTGGA (site GACGTCTCTTC)	1.94
GACTATACATGGACCGGTTTTCCCGGTAATCCGTATTTGGG (site GACTATACTCC)	0.588
GACTCGACATGGACCGGTTTTCCCGGTAATCCGTATTTGCA (site GACTCGACTTG)	1.84
GACTCTGCATGGACCGGTTTTCCCGGTAATCCGTATTTGCT (site GACTCTGCTAG)	1.3
GACTGACCATGGACCGGTTTTCCCGGTAATCCGTATTTGGC (site GACTGACCTGC)	0
GACTGAGCATGGACCGGTTTTCCCGGTAATCCGTATTTGTC (site GACTGAGCTGA)	2.29
GACTGCACATGGACCGGTTTTCCCGGTAATCCGTATTTGGT (site GACTGCACTAC)	0.857
GACTTAGCATGGACCGGTTTTCCCGGTAATCCGTATTTGGT (site GACTTAGCTAC)	0.191
GAGAAACCATGGACCGGTTTTCCCGGTAATCCGTATTTGGT (site GAAAAACCTAC)	0
GAGAAACCATGGACCGGTTTTCCCGGTAATCCGTATTTGGT (site GACAAACCTAC)	0
GAGAAACCATGGACCGGTTTTCCCGGTAATCCGTATTTGGT (site GAGAAACCTAC)	0
GAGAAACCATGGACCGGTTTTCCCGGTAATCCGTATTTGGT (site GATAAACCTAC)	0
GAGAACCCATGGACCGGTTTTCCCGGTAATCCGTATTTGTC (site GAGAACCCTGA)	0
GAGAAGCCATGGACCGGTTTTCCCGGTAATCCGTATTTGAC (site GAGAAGCCTGT)	0
GAGACAACATGGACCGGTTTTCCCGGTAATCCGTATTTGAA (site GAGACAACTTT)	0.852

Sequence	recombinant UMI read abundance (log10)
GAGACGACATGGACCGGTTTTCCCGGTAATCCGTATTTGGG (site GAGACGACTCC)	0.501
GAGACGACATGGACCGGTTTTCCCGGTAATCCGTATTTGTC (site GAGACGACTGA)	1.94
GAGACTACATGGACCGGTTTTCCCGGTAATCCGTATTTGAA (site GAGACTACTTT)	0.551
GAGATAACATGGACCGGTTTTCCCGGTAATCCGTATTTGCG (site GAGATAACTCG)	1.56
GAGATCACATGGACCGGTTTTCCCGGTAATCCGTATTTGGT (site GAGATCACTAC)	1.37
GAGATGACATGGACCGGTTTTCCCGGTAATCCGTATTTGCA (site GAGATGACTTG)	2.52
GAGCAATCATGGACCGGTTTTCCCGGTAATCCGTATTTGTT (site GAGCAATCTAA)	2.77
GAGCATGCATGGACCGGTTTTCCCGGTAATCCGTATTTGGT (site GAGCATGCTAC)	1.5
GAGCATGCATGGACCGGTTTTCCCGGTAATCCGTATTTGGT (site GCGCATGCTAC)	0.474
GAGCATGCATGGACCGGTTTTCCCGGTAATCCGTATTTGGT (site GGGCATGCTAC)	0.422
GAGCATGCATGGACCGGTTTTCCCGGTAATCCGTATTTGGT (site GTGCATGCTAC)	0.162
GAGCCGGCATGGACCGGTTTTCCCGGTAATCCGTATTTGGT (site GAGCCGGCTAC)	0.57
GAGCCTGCATGGACCGGTTTTCCCGGTAATCCGTATTTGGT (site GAGCCTGCTAC)	0.482
GAGCGTTCATGGACCGGTTTTCCCGGTAATCCGTATTTGCG (site GAGCGTTCTCG)	1.82
GAGCTAACATGGACCGGTTTTCCCGGTAATCCGTATTTGAT (site GAGCTAACTAT)	2.46
GAGCTAACATGGACCGGTTTTCCCGGTAATCCGTATTTGAT (site GAGCTCACTAT)	0.0205
GAGCTAACATGGACCGGTTTTCCCGGTAATCCGTATTTGAT (site GAGCTGACTAT)	0.034
GAGCTAACATGGACCGGTTTTCCCGGTAATCCGTATTTGAT (site GAGCTTACTAT)	0.00927
GAGCTCACATGGACCGGTTTTCCCGGTAATCCGTATTTGCT (site GAGCTCACTAA)	1.28
GAGCTCACATGGACCGGTTTTCCCGGTAATCCGTATTTGCT (site GAGCTCACTAC)	0.00315
GAGCTCACATGGACCGGTTTTCCCGGTAATCCGTATTTGCT (site GAGCTCACTAG)	2.24
GAGCTCACATGGACCGGTTTTCCCGGTAATCCGTATTTGCT (site GAGCTCACTAT)	1.14
GAGCTGACATGGACCGGTTTTCCCGGTAATCCGTATTTGAT (site GAGCTAACTAT)	2.08

Sequence	recombinant UMI read abundance (log10)
GAGCTGACATGGACCGGTTTTCCCGGTAATCCGTATTTGAT (site GAGCTCACTAT)	0.0113
GAGCTGACATGGACCGGTTTTCCCGGTAATCCGTATTTGAT (site GAGCTGACTAT)	2.09
GAGCTGACATGGACCGGTTTTCCCGGTAATCCGTATTTGAT (site GAGCTTACTAT)	0.154
GAGCTGCCATGGACCGGTTTTCCCGGTAATCCGTATTTGCG (site GAGCTGCCTCG)	0.232
GAGGAACCATGGACCGGTTTTCCCGGTAATCCGTATTTGTT (site GAGGAACCTAA)	0
GAGGATTCATGGACCGGTTTTCCCGGTAATCCGTATTTGTT (site GAAGATTCTAA)	1.46
GAGGATTCATGGACCGGTTTTCCCGGTAATCCGTATTTGTT (site GACGATTCTAA)	0.365
GAGGATTCATGGACCGGTTTTCCCGGTAATCCGTATTTGTT (site GAGGATTCTAA)	2.83
GAGGATTCATGGACCGGTTTTCCCGGTAATCCGTATTTGTT (site GATGATTCTAA)	0.0156
GAGGGGCCATGGACCGGTTTTCCCGGTAATCCGTATTTGGC (site GAGGGGCCTGC)	0
GAGTACCCATGGACCGGTTTTCCCGGTAATCCGTATTTGTT (site GAGTACCCTAA)	0.0215
GAGTGCGCATGGACCGGTTTTCCCGGTAATCCGTATTTGTC (site GAGTGCGCTGA)	2.71
GAGTGGCCATGGACCGGTTTTCCCGGTAATCCGTATTTGCA (site GAATGGCCTTG)	0
GAGTGGCCATGGACCGGTTTTCCCGGTAATCCGTATTTGCA (site GACTGGCCTTG)	0
GAGTGGCCATGGACCGGTTTTCCCGGTAATCCGTATTTGCA (site GAGTGGCCTTG)	0
GAGTGGCCATGGACCGGTTTTCCCGGTAATCCGTATTTGCA (site GATTGGCCTTG)	0
GAGTTGGCATGGACCGGTTTTCCCGGTAATCCGTATTTGTA (site GAGTTGGCTTA)	2.18
GATAAGGCATGGACCGGTTTTCCCGGTAATCCGTATTTGCG (site GATAAGGCTCG)	1.83
GATAAGGCATGGACCGGTTTTCCCGGTAATCCGTATTTGGC (site GATAAGGCTGC)	1.3
GATATGCCATGGACCGGTTTTCCCGGTAATCCGTATTTGCT (site GATATGCCTAG)	0
GATCCACCATGGACCGGTTTTCCCGGTAATCCGTATTTGGT (site GATCCACCTAC)	0.0102
GATCGACCATGGACCGGTTTTCCCGGTAATCCGTATTTGTC (site GATCGACCTGA)	0
